# Laboratory results reported in PMC10745491 (Frontiers in Cellular Neuroscience, 2023).
# Read-outs that look alike come from different tables or passages of the source. Peptide text beside a SMILES is read from it.
# What was measured:
# [1] = molecular target: beta 1 (Homo sapiens, UniProt P08588)
# [2] = molecular target: CDK2 (Homo sapiens, UniProt P24941)
# [3] = molecular target: T1, human OXTR (Homo sapiens, UniProt P30559); experiment: cell-based
# [4] = tested on: Na+ channel; experiment: radioligand binding assay; set-up: species or system human
# [5] = molecular target: 5-HT transporter (Homo sapiens, UniProt P31645)
# [6] = molecular target: alpha 2A (Homo sapiens, UniProt P08913)
# [7] = molecular target: rat V1aR (Rattus norvegicus, UniProt P30560); experiment: cell-based; type: cell-based
# [8] = molecular target: acetylcholinesterase (Homo sapiens, UniProt P22303); type: biochemical
# [9] = tested on: sigma
# [10] = tested on: BZD; experiment: radioligand binding assay; set-up: species or system human
# [11] = molecular target: T2, rat OXTR (Rattus norvegicus, UniProt P70536)
# [12] = molecular target: MAO-B enzyme (Homo sapiens, UniProt P27338)
# [13] = molecular target: HIV-1 protease (Human immunodeficiency virus type 1 group M subtype B, UniProt P04585)
# [14] = molecular target: T1, human OXTR
# [15] = tested on: mPFC transcriptome; conditions: rat, in vivo, 0.07 mg/kg
# [16] = molecular target: H2 (Homo sapiens, UniProt P25021)
# [17] = molecular target: mu (Homo sapiens, UniProt P35372)
# [18] = molecular target: FP (Homo sapiens, UniProt P43088); type: binding
# [19] = molecular target: T2, rat OXTR; experiment: cell-based
# [20] = molecular target: ACE (Homo sapiens, UniProt P12821)
# [21] = molecular target: GSK3alpha (Homo sapiens, UniProt P49840)
# [22] = molecular target: 5-HT2A (Homo sapiens, UniProt P28223); experiment: radioligand binding assay
# [23] = molecular target: GR (Homo sapiens, UniProt P04150)
# [24] = molecular target: MAO-A (Homo sapiens, UniProt P21397); type: biochemical
# [25] = tested on: PCP; experiment: radioligand binding assay; set-up: species or system human
# [26] = molecular target: sst4 (Homo sapiens, UniProt P31391); type: binding
# [27] = molecular target: D1 (Homo sapiens, UniProt P21728)
# [28] = molecular target: D2S (Homo sapiens, UniProt P14416); type: binding
# [29] = molecular target: M2 (Homo sapiens, UniProt P08172)
# [30] = tested on: brain OXTR; conditions: in vivo
# [31] = molecular target: xanthine oxidase / superoxide O2-scavenging (Bos taurus, UniProt P80457)
# [32] = in vivo, sc
# [33] = molecular target: 5-HT2B (Homo sapiens, UniProt P41595); experiment: radioligand binding assay
# [34] = rat
# [35] = tested on: Ca2+ channel; type: binding, human
# [36] = molecular target: H3 (Homo sapiens, UniProt Q9Y5N1)
# [37] = molecular target: M4 (Homo sapiens, UniProt P08173); type: binding
# M4, sequence (P08173 whole entry): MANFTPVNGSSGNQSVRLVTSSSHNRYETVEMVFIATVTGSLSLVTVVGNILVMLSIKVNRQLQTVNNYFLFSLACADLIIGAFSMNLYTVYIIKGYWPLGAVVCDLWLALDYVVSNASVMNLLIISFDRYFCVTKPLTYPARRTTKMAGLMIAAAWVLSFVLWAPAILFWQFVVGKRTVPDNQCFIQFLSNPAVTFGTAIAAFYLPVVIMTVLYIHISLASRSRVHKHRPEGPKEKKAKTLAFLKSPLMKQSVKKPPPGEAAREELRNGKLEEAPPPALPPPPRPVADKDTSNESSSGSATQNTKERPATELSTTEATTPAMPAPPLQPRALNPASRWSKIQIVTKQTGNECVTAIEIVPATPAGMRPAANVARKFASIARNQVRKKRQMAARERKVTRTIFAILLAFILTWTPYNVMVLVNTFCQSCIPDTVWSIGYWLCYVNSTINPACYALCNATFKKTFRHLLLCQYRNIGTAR
# xanthine oxidase / superoxide O2-scavenging, sequence (P80457 2-1332): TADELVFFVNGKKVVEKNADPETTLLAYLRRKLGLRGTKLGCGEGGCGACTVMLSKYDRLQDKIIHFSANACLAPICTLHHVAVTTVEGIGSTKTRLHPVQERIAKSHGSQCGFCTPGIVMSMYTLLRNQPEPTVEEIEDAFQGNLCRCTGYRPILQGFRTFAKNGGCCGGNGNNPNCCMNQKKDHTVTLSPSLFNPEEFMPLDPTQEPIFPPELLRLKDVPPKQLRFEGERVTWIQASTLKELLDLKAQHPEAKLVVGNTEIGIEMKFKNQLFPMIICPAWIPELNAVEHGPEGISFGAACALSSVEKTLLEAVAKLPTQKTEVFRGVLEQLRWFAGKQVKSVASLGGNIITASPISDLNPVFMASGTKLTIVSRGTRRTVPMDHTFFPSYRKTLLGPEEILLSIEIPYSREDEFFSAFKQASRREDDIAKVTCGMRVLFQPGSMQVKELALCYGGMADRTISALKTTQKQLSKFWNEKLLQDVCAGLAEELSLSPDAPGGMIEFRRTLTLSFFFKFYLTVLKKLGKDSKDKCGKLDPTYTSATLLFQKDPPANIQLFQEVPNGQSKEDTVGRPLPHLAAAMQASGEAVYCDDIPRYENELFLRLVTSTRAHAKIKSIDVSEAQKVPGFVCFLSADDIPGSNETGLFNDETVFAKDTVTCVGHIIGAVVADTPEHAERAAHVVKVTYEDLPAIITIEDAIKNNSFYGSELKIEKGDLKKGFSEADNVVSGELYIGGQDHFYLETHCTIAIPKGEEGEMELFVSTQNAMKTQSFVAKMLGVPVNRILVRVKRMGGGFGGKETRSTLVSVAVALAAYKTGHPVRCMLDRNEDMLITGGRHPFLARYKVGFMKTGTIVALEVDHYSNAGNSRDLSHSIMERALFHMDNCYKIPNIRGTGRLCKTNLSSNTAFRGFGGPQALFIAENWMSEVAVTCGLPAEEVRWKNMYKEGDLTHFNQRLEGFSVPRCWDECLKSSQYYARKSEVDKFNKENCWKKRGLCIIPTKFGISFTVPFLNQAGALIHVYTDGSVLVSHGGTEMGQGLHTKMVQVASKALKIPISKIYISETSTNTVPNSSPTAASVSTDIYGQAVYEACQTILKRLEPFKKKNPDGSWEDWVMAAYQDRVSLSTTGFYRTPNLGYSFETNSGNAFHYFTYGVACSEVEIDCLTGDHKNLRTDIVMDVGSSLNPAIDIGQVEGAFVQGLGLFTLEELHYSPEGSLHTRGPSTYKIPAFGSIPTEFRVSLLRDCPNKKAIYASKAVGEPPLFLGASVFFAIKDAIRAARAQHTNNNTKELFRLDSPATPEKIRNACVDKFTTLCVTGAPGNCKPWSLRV
# acetylcholinesterase, sequence (P22303 32-614): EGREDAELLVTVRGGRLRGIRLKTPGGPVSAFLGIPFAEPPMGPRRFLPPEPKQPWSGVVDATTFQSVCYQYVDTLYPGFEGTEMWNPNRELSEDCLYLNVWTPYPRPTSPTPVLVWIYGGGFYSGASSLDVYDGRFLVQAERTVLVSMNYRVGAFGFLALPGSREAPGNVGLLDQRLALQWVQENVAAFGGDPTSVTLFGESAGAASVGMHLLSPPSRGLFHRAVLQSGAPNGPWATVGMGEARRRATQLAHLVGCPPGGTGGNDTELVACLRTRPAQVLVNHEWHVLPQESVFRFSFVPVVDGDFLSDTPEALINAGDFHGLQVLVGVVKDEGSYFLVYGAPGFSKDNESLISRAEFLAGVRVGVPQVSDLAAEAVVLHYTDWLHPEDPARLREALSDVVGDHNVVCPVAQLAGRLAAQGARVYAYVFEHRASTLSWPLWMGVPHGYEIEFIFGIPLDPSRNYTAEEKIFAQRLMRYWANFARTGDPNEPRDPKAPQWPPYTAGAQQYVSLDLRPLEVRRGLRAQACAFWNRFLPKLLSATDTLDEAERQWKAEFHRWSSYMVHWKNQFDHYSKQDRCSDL
# MAO-B enzyme, sequence (P27338 whole entry): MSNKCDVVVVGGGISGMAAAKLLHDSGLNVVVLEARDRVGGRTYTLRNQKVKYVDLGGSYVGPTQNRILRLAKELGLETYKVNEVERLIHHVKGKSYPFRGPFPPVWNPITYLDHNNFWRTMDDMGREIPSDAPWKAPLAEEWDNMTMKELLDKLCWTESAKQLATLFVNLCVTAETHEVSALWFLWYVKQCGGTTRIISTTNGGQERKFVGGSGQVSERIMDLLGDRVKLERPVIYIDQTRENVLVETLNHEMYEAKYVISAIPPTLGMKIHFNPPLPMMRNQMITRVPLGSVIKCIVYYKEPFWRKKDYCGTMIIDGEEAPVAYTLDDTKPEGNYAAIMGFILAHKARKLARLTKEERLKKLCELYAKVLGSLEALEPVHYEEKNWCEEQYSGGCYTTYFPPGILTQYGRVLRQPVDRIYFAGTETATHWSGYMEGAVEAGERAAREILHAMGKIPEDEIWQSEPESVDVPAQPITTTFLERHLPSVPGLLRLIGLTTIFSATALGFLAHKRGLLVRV
# mu, sequence (P35372 whole entry): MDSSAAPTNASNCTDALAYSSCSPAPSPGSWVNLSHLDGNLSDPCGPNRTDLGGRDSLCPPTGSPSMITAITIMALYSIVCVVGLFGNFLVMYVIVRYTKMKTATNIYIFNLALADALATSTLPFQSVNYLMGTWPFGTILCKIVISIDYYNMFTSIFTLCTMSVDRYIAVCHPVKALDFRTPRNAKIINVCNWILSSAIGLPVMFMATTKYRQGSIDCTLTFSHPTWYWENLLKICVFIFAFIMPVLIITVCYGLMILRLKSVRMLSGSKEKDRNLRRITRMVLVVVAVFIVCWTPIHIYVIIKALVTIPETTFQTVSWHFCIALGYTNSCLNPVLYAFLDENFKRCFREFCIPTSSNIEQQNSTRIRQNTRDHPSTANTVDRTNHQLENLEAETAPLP
# H3, sequence (Q9Y5N1 whole entry): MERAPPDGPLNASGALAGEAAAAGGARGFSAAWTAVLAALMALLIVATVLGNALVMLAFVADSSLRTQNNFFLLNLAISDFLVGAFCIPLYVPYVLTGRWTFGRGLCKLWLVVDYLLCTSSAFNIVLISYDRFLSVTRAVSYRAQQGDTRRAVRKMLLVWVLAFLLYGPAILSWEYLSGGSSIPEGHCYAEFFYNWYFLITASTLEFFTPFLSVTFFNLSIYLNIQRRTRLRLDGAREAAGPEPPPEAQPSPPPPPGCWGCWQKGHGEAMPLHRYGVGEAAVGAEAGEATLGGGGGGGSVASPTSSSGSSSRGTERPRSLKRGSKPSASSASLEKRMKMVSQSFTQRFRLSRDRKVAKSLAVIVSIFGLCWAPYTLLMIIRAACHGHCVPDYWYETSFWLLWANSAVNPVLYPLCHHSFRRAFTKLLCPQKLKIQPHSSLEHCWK
# sst4, sequence (P31391 whole entry): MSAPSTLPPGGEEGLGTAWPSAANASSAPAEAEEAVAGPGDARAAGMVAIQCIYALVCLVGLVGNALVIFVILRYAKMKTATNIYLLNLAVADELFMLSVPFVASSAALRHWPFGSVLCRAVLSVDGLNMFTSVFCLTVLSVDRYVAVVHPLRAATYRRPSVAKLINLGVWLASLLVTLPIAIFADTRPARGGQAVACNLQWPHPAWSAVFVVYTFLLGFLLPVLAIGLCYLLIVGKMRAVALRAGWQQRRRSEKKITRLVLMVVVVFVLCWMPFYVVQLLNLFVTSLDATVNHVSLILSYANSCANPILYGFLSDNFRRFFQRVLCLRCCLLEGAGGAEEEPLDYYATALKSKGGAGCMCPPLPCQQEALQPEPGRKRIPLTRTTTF
# H2, sequence (P25021 whole entry): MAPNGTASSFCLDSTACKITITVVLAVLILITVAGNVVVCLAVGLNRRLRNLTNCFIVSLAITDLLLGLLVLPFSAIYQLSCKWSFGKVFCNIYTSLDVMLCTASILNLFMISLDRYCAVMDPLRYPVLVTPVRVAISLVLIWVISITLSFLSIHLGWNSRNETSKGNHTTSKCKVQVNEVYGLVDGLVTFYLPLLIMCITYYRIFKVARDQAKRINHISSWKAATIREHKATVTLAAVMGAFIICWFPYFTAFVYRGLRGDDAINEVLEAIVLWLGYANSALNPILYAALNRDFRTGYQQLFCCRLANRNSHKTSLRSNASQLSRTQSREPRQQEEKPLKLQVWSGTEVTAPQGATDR
# 5-HT2B, sequence (P41595 whole entry): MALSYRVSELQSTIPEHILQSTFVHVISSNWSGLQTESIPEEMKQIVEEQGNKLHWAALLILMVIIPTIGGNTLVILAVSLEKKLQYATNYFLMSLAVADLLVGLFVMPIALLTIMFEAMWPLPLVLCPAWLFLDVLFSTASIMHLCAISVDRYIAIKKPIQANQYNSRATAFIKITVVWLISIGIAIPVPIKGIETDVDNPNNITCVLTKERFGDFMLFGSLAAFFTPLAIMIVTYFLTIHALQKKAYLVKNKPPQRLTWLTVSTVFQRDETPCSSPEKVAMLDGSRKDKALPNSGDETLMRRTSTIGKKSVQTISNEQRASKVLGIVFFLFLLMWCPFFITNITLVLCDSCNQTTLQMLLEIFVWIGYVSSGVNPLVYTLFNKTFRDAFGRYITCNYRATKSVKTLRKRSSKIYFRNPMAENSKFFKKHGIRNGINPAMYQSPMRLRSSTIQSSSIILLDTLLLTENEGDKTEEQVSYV
compound,measurement,setting,value
"CC[C@H](C)[C@@H]1NC(=O)[C@H](Cc2ccc(O)cc2)NC(=O)CNC(=O)CC[C@@H](C(=O)N2CC(F)C[C@H]2C(=O)N[C@@H](CC(C)C)C(=O)NCC(N)=O)NC(=O)[C@H](CC(N)=O)NC(=O)[C@H](CCC(N)=O)NC1=O (stereo partly drawn) [RO6958375] (HELM PEPTIDE1{G.Y.I.Q.N.E.[O=C([C@@H]1CC(F)CN1[*:1])[*:2]].L.G.[am]}$PEPTIDE1,PEPTIDE1,1:R1-6:R3$$$V2.0)",% Inhibition of Control Specific Binding,[1],-5%
same,Mean / % of Control Specific Binding,[1],105.2%
same,% Inhibition of Control Specific Binding,[2],13%
same,Mean / % of Control Specific Binding,[2],87.1%
same,EC50,[3],0.025 nM
same,% Inhibition of Control Specific Binding,[4],10%
same,Mean / % of Control Specific Binding,[4],89.6%
same,% Inhibition of Control Specific Binding,[5],-4%
same,Mean / % of Control Specific Binding,[5],103.5%
same,% Inhibition of Control Specific Binding,[6],-7%
same,Mean / % of Control Specific Binding,[6],106.7%
same,EC50,[7],> 27000 nM
same,activity on rat V1aR (inactive up to),[7],> 1 µM
same,% Inhibition of Control Specific Binding,[8],-2%
same,Mean / % of Control Specific Binding,[8],101.5%
same,% Inhibition of Control Specific Binding,[9],4%
same,Mean / % of Control Specific Binding,[9],96.2%
same,% Inhibition of Control Specific Binding,[10],-16%
same,Mean / % of Control Specific Binding,[10],116%
same,agonist efficacy and potency relative to oxytocin on rat OXTR,[11],full OXTR agonist and equipotent to oxytocin
same,% Inhibition of Control Specific Binding,[12],-14%
same,Mean / % of Control Specific Binding,[12],113.8%
same,% Inhibition of Control Specific Binding,[13],5%
same,Mean / % of Control Specific Binding,[13],95.3%
same,activation of human OXTR,[14],fully activated
same,CPA-induced transcriptomic changes,[15],partially prevented
same,% Inhibition of Control Specific Binding,[16],18%
same,Mean / % of Control Specific Binding,[16],81.9%
same,% Inhibition of Control Specific Binding,[17],2%
same,Mean / % of Control Specific Binding,[17],98.2%
same,% Inhibition of Control Specific Binding,[18],3%
same,Mean / % of Control Specific Binding,[18],96.9%
same,EC50,[19],0.011 nM
same,% Inhibition of Control Specific Binding,[20],-28%
same,Mean / % of Control Specific Binding,[20],128.2%
same,% Inhibition of Control Specific Binding,[21],-5%
same,Mean / % of Control Specific Binding,[21],105.2%
same,% Inhibition of Control Specific Binding,[22],9%
same,Mean / % of Control Specific Binding,[22],90.6%
same,% Inhibition of Control Specific Binding,[23],-9%
same,Mean / % of Control Specific Binding,[23],109.1%
same,% Inhibition of Control Specific Binding,[24],-15%
same,Mean / % of Control Specific Binding,[24],115%
same,% Inhibition of Control Specific Binding,[25],-6%
same,Mean / % of Control Specific Binding,[25],105.5%
same,% Inhibition of Control Specific Binding,[26],17%
same,Mean / % of Control Specific Binding,[26],82.8%
same,% Inhibition of Control Specific Binding,[27],-2%
same,Mean / % of Control Specific Binding,[27],102.2%
same,% Inhibition of Control Specific Binding,[28],6%
same,Mean / % of Control Specific Binding,[28],93.7%
same,% Inhibition of Control Specific Binding,[29],-14%
same,Mean / % of Control Specific Binding,[29],113.8%
same,time of full activation of rat OXTR post-dose,[30]; sc,4.3 h
same,CSF concentration relative to in vitro OXTR EC50,[30]; rat,more than 10 fold
same,brain OXTR activation,[30]; rat,0%
same,brain OXTR activation,"[30]; rat, sc, 0.001 mg/kg",10%
same,brain OXTR activation,"[30]; rat, sc, 0.07 mg/kg",72%
same,% Inhibition of Control Specific Binding,[31],8%
same,Mean / % of Control Specific Binding,[31],92.1%
same,highest concentration detected in rat CSF,[32]; 0.03 mg/kg,0.24 nM
same,highest concentration detected in rat CSF,[32]; 0.1 mg/kg,0.58 nM
same,CNS uptake from plasma,[32]; rat,ca. 1%
same,brain half-life (CSF kinetic),[32]; rat,ca. 70 min
same,half-life in plasma,[32]; rat,10 to 15 min
same,subcutaneous absorption,[32]; rat,rapid
same,% Inhibition of Control Specific Binding,[33],-2%
same,Mean / % of Control Specific Binding,[33],102%
same,plasma protein binding,[34],negligible
same,% Inhibition of Control Specific Binding,[35],-36%
same,Mean / % of Control Specific Binding,[35],136%
same,% Inhibition of Control Specific Binding,[36],-6%
same,Mean / % of Control Specific Binding,[36],105.9%
same,% Inhibition of Control Specific Binding,[37],-17%
same,Mean / % of Control Specific Binding,[37],116.9%
